Target: T1, Interstitial collagenase (Homo sapiens, UniProt P03956);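 note: MMP-1 enzyme inhibition assay using a peptide substrate; in other assays of this panel Not Active means under 50% inhibition at 10 µM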
T1 sequence (P03956 whole entry): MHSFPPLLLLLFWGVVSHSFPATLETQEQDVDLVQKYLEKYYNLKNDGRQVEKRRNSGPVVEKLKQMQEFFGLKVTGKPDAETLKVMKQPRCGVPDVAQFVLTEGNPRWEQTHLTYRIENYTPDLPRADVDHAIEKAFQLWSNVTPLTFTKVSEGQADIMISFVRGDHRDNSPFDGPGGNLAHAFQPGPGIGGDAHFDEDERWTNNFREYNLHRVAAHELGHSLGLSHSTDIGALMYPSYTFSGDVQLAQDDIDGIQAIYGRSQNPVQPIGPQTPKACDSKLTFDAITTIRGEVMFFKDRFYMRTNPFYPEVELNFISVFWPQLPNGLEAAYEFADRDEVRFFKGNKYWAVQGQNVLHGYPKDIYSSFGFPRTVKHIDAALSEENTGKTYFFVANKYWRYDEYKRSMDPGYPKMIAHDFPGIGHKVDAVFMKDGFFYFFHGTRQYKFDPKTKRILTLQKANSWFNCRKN
Experiment: biochemical
Type: tissue-based, Rheumatoid synovial fibroblasts
Conditions: not given

Compound | IC50
C[C@H]1O[C@@H](n2cc(F)c(=O)[nH]c2=O)[C@H](O)[C@@H]1O [DOXIFLURIDINE] | Not Active
Cn1c(=O)c2c(ncn2CC(O)CO)n(C)c1=O (configuration not stated) [DYPHYLLINE] | Not Active
CC[C@H]1CN2CCc3cc(OC)c(OC)cc3[C@@H]2C[C@@H]1C[C@H]1NCCc2cc(OC)c(OC)cc21 [EMETINE] | Not Active
C[C@@H](CO)NC(=O)[C@@H]1C=C2c3cccc4[nH]cc(c34)C[C@H]2N(C)C1 [ERGONOVINE] | Not Active
COC(=O)CCc1ccc(OCC(O)CNC(C)C)cc1 (configuration not stated) [ESMOLOL] | Not Active
CCC1(C)CC(=O)NC1=O (configuration not stated) [ETHOSUXIMIDE] | Not Active
C#C[C@]1(OC(C)=O)CC[C@H]2[C@@H]3CCC4=C[C@@H](OC(C)=O)CC[C@@H]4[C@H]3CC[C@@]21C [ETHYNODIOL DIACETATE] | Not Active
COc1cc([C@@H]2c3cc4c(cc3[C@@H](O[C@@H]3O[C@@H]5CO[C@@H](C)O[C@H]5[C@H](O)[C@H]3O)[C@H]3COC(=O)[C@H]23)OCO4)cc(OC)c1O [ETOPOSIDE] | Not Active

System: not listed separately
Experiment: DRUGMATRIX: Glutamate, AMPA radioligand binding (ligand: [3H] AMPA)
Type: cell membranes, Rattus norvegicus, Wistar, Cerebral cortex, Membrane
Conditions: Not Active = under 50% inhibition at 10 µM

Compound | IC50 | Ki
C[C@H]1O[C@@H](n2cc(F)c(=O)[nH]c2=O)[C@H](O)[C@@H]1O [DOXIFLURIDINE] | Not Active | Not Active
Cn1c(=O)c2c(ncn2CC(O)CO)n(C)c1=O (configuration not stated) [DYPHYLLINE] | Not Active | Not Active
CC[C@H]1CN2CCc3cc(OC)c(OC)cc3[C@@H]2C[C@@H]1C[C@H]1NCCc2cc(OC)c(OC)cc21 [EMETINE] | Not Active | Not Active
C[C@@H](CO)NC(=O)[C@@H]1C=C2c3cccc4[nH]cc(c34)C[C@H]2N(C)C1 [ERGONOVINE] | Not Active | Not Active
COC(=O)CCc1ccc(OCC(O)CNC(C)C)cc1 (configuration not stated) [ESMOLOL] | Not Active | Not Active
CCC1(C)CC(=O)NC1=O (configuration not stated) [ETHOSUXIMIDE] | Not Active | Not Active
C#C[C@]1(OC(C)=O)CC[C@H]2[C@@H]3CCC4=C[C@@H](OC(C)=O)CC[C@@H]4[C@H]3CC[C@@]21C [ETHYNODIOL DIACETATE] | Not Active | Not Active
COc1cc([C@@H]2c3cc4c(cc3[C@@H](O[C@@H]3O[C@@H]5CO[C@@H](C)O[C@H]5[C@H](O)[C@H]3O)[C@H]3COC(=O)[C@H]23)OCO4)cc(OC)c1O [ETOPOSIDE] | Not Active | Not Active

Target: T2, Cysteinyl leukotriene receptor 1 (Homo sapiens, UniProt Q9Y271); note: in other assays of this panel Not Active means under 50% inhibition at 10 µM
T2 sequence (Q9Y271 whole entry): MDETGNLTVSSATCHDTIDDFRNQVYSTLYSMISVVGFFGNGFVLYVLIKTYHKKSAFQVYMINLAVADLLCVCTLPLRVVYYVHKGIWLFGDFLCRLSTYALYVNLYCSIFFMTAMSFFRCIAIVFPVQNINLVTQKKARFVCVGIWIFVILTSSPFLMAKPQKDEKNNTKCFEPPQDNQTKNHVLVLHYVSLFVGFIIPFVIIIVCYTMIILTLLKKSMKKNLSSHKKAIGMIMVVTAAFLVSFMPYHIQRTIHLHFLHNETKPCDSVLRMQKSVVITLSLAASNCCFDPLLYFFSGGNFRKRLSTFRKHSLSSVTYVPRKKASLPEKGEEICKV
Experiment: not given
Type: cell membranes, Membrane
Conditions: cho-k1

Compound | IC50
C[C@H]1O[C@@H](n2cc(F)c(=O)[nH]c2=O)[C@H](O)[C@@H]1O [DOXIFLURIDINE] | Not Active
Cn1c(=O)c2c(ncn2CC(O)CO)n(C)c1=O (configuration not stated) [DYPHYLLINE] | Not Active
CC[C@H]1CN2CCc3cc(OC)c(OC)cc3[C@@H]2C[C@@H]1C[C@H]1NCCc2cc(OC)c(OC)cc21 [EMETINE] | Not Active
C[C@@H](CO)NC(=O)[C@@H]1C=C2c3cccc4[nH]cc(c34)C[C@H]2N(C)C1 [ERGONOVINE] | Not Active
COC(=O)CCc1ccc(OCC(O)CNC(C)C)cc1 (configuration not stated) [ESMOLOL] | Not Active
CCC1(C)CC(=O)NC1=O (configuration not stated) [ETHOSUXIMIDE] | Not Active
C#C[C@]1(OC(C)=O)CC[C@H]2[C@@H]3CCC4=C[C@@H](OC(C)=O)CC[C@@H]4[C@H]3CC[C@@]21C [ETHYNODIOL DIACETATE] | Not Active
COc1cc([C@@H]2c3cc4c(cc3[C@@H](O[C@@H]3O[C@@H]5CO[C@@H](C)O[C@H]5[C@H](O)[C@H]3O)[C@H]3COC(=O)[C@H]23)OCO4)cc(OC)c1O [ETOPOSIDE] | Not Active

System: not listed separately
Experiment: DRUGMATRIX: Purinergic P2X radioligand binding (ligand: [3H] alpha, beta-Methylene-ATP)
Type: cell membranes, Oryctolagus cuniculus, New Zealand albino, Urinary bladder, Membrane
Conditions: Not Active = under 50% inhibition at 10 µM

Compound | IC50 | Ki
C[C@H]1O[C@@H](n2cc(F)c(=O)[nH]c2=O)[C@H](O)[C@@H]1O [DOXIFLURIDINE] | Not Active | Not Active
Cn1c(=O)c2c(ncn2CC(O)CO)n(C)c1=O (configuration not stated) [DYPHYLLINE] | Not Active | Not Active
CC[C@H]1CN2CCc3cc(OC)c(OC)cc3[C@@H]2C[C@@H]1C[C@H]1NCCc2cc(OC)c(OC)cc21 [EMETINE] | Not Active | Not Active
C[C@@H](CO)NC(=O)[C@@H]1C=C2c3cccc4[nH]cc(c34)C[C@H]2N(C)C1 [ERGONOVINE] | Not Active | Not Active
COC(=O)CCc1ccc(OCC(O)CNC(C)C)cc1 (configuration not stated) [ESMOLOL] | Not Active | Not Active
CCC1(C)CC(=O)NC1=O (configuration not stated) [ETHOSUXIMIDE] | Not Active | Not Active
C#C[C@]1(OC(C)=O)CC[C@H]2[C@@H]3CCC4=C[C@@H](OC(C)=O)CC[C@@H]4[C@H]3CC[C@@]21C [ETHYNODIOL DIACETATE] | Not Active | Not Active
COc1cc([C@@H]2c3cc4c(cc3[C@@H](O[C@@H]3O[C@@H]5CO[C@@H](C)O[C@H]5[C@H](O)[C@H]3O)[C@H]3COC(=O)[C@H]23)OCO4)cc(OC)c1O [ETOPOSIDE] | Not Active | Not Active

System: not listed separately
Experiment: DRUGMATRIX: Imidazoline I2, Central radioligand binding (ligand: [3H] Idazoxan)
Type: cell membranes, Rattus norvegicus, Wistar, Cerebral cortex, Membrane
Conditions: Not Active = under 50% inhibition at 10 µM

Compound | IC50 | Ki
C[C@H]1O[C@@H](n2cc(F)c(=O)[nH]c2=O)[C@H](O)[C@@H]1O [DOXIFLURIDINE] | Not Active | Not Active
Cn1c(=O)c2c(ncn2CC(O)CO)n(C)c1=O (configuration not stated) [DYPHYLLINE] | Not Active | Not Active
CC[C@H]1CN2CCc3cc(OC)c(OC)cc3[C@@H]2C[C@@H]1C[C@H]1NCCc2cc(OC)c(OC)cc21 [EMETINE] | Not Active | Not Active
COC(=O)CCc1ccc(OCC(O)CNC(C)C)cc1 (configuration not stated) [ESMOLOL] | Not Active | Not Active
CCC1(C)CC(=O)NC1=O (configuration not stated) [ETHOSUXIMIDE] | Not Active | Not Active
C#C[C@]1(OC(C)=O)CC[C@H]2[C@@H]3CCC4=C[C@@H](OC(C)=O)CC[C@@H]4[C@H]3CC[C@@]21C [ETHYNODIOL DIACETATE] | Not Active | Not Active
COc1cc([C@@H]2c3cc4c(cc3[C@@H](O[C@@H]3O[C@@H]5CO[C@@H](C)O[C@H]5[C@H](O)[C@H]3O)[C@H]3COC(=O)[C@H]23)OCO4)cc(OC)c1O [ETOPOSIDE] | Not Active | Not Active

Same assay, conditions: Not Active = under 50% inhibition at 10 µM; read-out: Ki

Compound | Ki
C[C@@H](CO)NC(=O)[C@@H]1C=C2c3cccc4[nH]cc(c34)C[C@H]2N(C)C1 [ERGONOVINE] | 1230 nM

Target: 5-hydroxytryptamine receptor 4 (Cavia porcellus, UniProt O70528); note: in other assays of this panel Not Active means under 50% inhibition at 10 µM
Sequence (O70528 whole entry): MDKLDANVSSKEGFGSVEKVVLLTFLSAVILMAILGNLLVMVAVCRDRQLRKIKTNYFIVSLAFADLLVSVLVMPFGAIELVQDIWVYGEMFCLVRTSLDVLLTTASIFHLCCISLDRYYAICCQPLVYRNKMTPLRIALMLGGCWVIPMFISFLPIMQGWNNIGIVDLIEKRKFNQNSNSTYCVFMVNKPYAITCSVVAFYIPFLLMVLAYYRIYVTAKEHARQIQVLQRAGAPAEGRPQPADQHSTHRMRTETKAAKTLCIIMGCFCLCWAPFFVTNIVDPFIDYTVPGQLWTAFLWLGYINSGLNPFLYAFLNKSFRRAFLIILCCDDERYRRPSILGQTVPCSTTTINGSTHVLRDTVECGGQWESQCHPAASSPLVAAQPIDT
Experiment: not given
Type: cell membranes, Dunkin-Hartley, Striatum, Membrane
Conditions: not given

Compound | IC50
C[C@H]1O[C@@H](n2cc(F)c(=O)[nH]c2=O)[C@H](O)[C@@H]1O [DOXIFLURIDINE] | Not Active
Cn1c(=O)c2c(ncn2CC(O)CO)n(C)c1=O (configuration not stated) [DYPHYLLINE] | Not Active
CC[C@H]1CN2CCc3cc(OC)c(OC)cc3[C@@H]2C[C@@H]1C[C@H]1NCCc2cc(OC)c(OC)cc21 [EMETINE] | Not Active
C[C@@H](CO)NC(=O)[C@@H]1C=C2c3cccc4[nH]cc(c34)C[C@H]2N(C)C1 [ERGONOVINE] | Not Active
COC(=O)CCc1ccc(OCC(O)CNC(C)C)cc1 (configuration not stated) [ESMOLOL] | Not Active
CCC1(C)CC(=O)NC1=O (configuration not stated) [ETHOSUXIMIDE] | Not Active
C#C[C@]1(OC(C)=O)CC[C@H]2[C@@H]3CCC4=C[C@@H](OC(C)=O)CC[C@@H]4[C@H]3CC[C@@]21C [ETHYNODIOL DIACETATE] | Not Active
COc1cc([C@@H]2c3cc4c(cc3[C@@H](O[C@@H]3O[C@@H]5CO[C@@H](C)O[C@H]5[C@H](O)[C@H]3O)[C@H]3COC(=O)[C@H]23)OCO4)cc(OC)c1O [ETOPOSIDE] | Not Active

System: not listed separately
Experiment: DRUGMATRIX: Glutamate, NMDA, Agonism radioligand binding (ligand: [3H] CGP-39653)
Type: cell membranes, Rattus norvegicus, Wistar, Cerebral cortex, Membrane
Conditions: Not Active = under 50% inhibition at 10 µM

Compound | IC50 | Ki
C[C@H]1O[C@@H](n2cc(F)c(=O)[nH]c2=O)[C@H](O)[C@@H]1O [DOXIFLURIDINE] | Not Active | Not Active
Cn1c(=O)c2c(ncn2CC(O)CO)n(C)c1=O (configuration not stated) [DYPHYLLINE] | Not Active | Not Active
CC[C@H]1CN2CCc3cc(OC)c(OC)cc3[C@@H]2C[C@@H]1C[C@H]1NCCc2cc(OC)c(OC)cc21 [EMETINE] | Not Active | Not Active
C[C@@H](CO)NC(=O)[C@@H]1C=C2c3cccc4[nH]cc(c34)C[C@H]2N(C)C1 [ERGONOVINE] | Not Active | Not Active
COC(=O)CCc1ccc(OCC(O)CNC(C)C)cc1 (configuration not stated) [ESMOLOL] | Not Active | Not Active
CCC1(C)CC(=O)NC1=O (configuration not stated) [ETHOSUXIMIDE] | Not Active | Not Active
C#C[C@]1(OC(C)=O)CC[C@H]2[C@@H]3CCC4=C[C@@H](OC(C)=O)CC[C@@H]4[C@H]3CC[C@@]21C [ETHYNODIOL DIACETATE] | Not Active | Not Active
COc1cc([C@@H]2c3cc4c(cc3[C@@H](O[C@@H]3O[C@@H]5CO[C@@H](C)O[C@H]5[C@H](O)[C@H]3O)[C@H]3COC(=O)[C@H]23)OCO4)cc(OC)c1O [ETOPOSIDE] | Not Active | Not Active
